Laboratory results published in US12429423B2, “L-2-hydroxyglutarate biosensor based on specific transcriptional regulator and application thereof” (SHANDONG UNIVERSITY, priority 2020, dated 2025).

Each compound was assayed on LhgR binding to the lhgO promoter (F1) (assay: Electrophoretic mobility shift assays (EMSAs) to analyze the effectors of LhgR). Details: 50 mM compound, 60 nM purified LhgR, 10 nM F1 fragment, 30° C.
Design: species or system Pseudomonas putida W619
Description: The above transcriptional regulator that specifically responds to L-2-hydroxyglutarate (L-2-HG) was obtained in the following way: • (1) analysis of the distribution of lhgO, the gene encoding a key enzyme for L-2-HG catabolism, in the genomes of different strains. A gene encoding a GntR family transcriptional regulator, lhgR, was found directly upstream of lhgO in the genome of Pseudomonas putida W619. lhgR gene was synthesized and cloned into pETDuet-1 vector, and the recombinant plasmid pETDuet-lhgR was introduced into an expression strain Escherichia coli BL21 (DE3), and then LhgR protein was obtained by induction of expression, isolation, and purification; • (2) electrophoretic mobility shift assays were performed to verify and determine the function of the above transcriptional regulator LhgR in Pseudomonas putida W619. Purified LhgR was incubated with different compounds (L-lysine, 5-aminovalerate, glutarate, D-2-HG, 2-ketoglutarate, and succinate), respectively, then the promoter fragment of lhgO was added. The effect on the binding ability of LhgR to the lhgO promoter fragment in the presence of different compounds was analyzed by electrophoretic separation, staining, and imaging.
Using the recombinant plasmid pETDuet-F2-lhgR-F1-lhgO as a template, the promoter region of lhgO (F1) was amplified by PCR using the synthetic primers. The F1 fragment and purified LhgR protein were diluted to 100 nM and 2000 nM using EMSA binding buffer, respectively. 18 μL of EMSA binding buffer containing 60 nM purified LhgR protein and 50 mM of different compounds was incubated for 15 min at 30° C., then 2 μL of F1 fragment at a final concentration of 10 nM was added and incubated for another 30 min at 30° C. 10 μL of the reaction mixture was electrophoresed on a 6% native polyacrylamide gels at 4° C. and 170 volts for approximately 45 minutes, followed by staining with SYBR green I and photographing.
The EMSA binding buffer formulation described in step (2) above was: 10 mM Tris-HCl, 50 mM KCl, 0.5 mM EDTA, 10% glycerol, and 1 mM dithiothreitol, adjusted to pH 7.4. The electrophoresis buffer formulation was: 89 mM Tris, 89 mM boric acid, 2 mM EDTA, adjusted to pH 8.3.
For `O=C(O)CCC(=O)C(=O)O` [2-ketoglutarate], the “effect on the binding of LhgR to the lhgO promoter fragment (EMSA)” value (from here on “effect on the binding of LhgR”) was “could not interfere with the binding of LhgR to DNA fragments”.
`NCCCCC(=O)O` [5-aminovalerate] was tested, and the “effect on the binding of LhgR” value was “could not interfere with the binding of LhgR to DNA fragments”.
In the case of `O=C(O)CC[C@@H](O)C(=O)O` [D-2-HG], the “effect on the binding of LhgR” value is reported as “could not interfere with the binding of LhgR to DNA fragments”.
In the case of `O=C(O)CC[C@H](O)C(=O)O` [L-2-HG, L-2-Hydroxyglutarate], the “effect on the binding of LhgR” value is reported as “inhibited the binding of LhgR to the lhgO promoter fragment”.
`NCCCC[C@H](N)C(=O)O` [L-lysine] was tested, and the “effect on the binding of LhgR” value was “could not interfere with the binding of LhgR to DNA fragments”.
For `O=C(O)CCC(=O)O` [succinate], the “effect on the binding of LhgR” value was “could not interfere with the binding of LhgR to DNA fragments”.

These compounds were tested on E. coli BL21(DE3) (assay: Real-time detection of intracellular L-2-HG concentration in bacteria). Details: carbon starvation-treated E. coli BL21(DE3) expressing the biosensor, L-2-HG added, 37° C., 5 min interval.
Assay type: cell-based, Escherichia coli
Description: The above application was performed by introducing the L-2-HG biosensor-encoding plasmid pETDuet-LHGFR0N3C into an expression strain E. coli BL21 (DE3), shaking the culture and then adding IPTG overnight to induce LHGFR0N3C expression, carbon starvation treatment in inorganic salt medium without carbon source for 8 h to remove intracellular L-2-HG, mixing 90 μL of carbon starvation-treated bacterial solution with 10 μL of gradient concentration of L-2-HG solution, the fluorescence emission intensity of mTFP and Venus and its ratio were measured continuously at 5-minute intervals by a fluorescence microplate reader, and the fluorescence emission ratio increased in response to the addition of L-2-HG, and there was a positive correlation between the change level of fluorescence emission ratio and the concentration of L-2-HG, which can be used as an indicator to achieve real-time detection of dynamic changes in intracellular L-2-HG concentration of bacteria.
The E. coli BL21(DE3)-pETDuet-LHGFR0N3C strain constructed in Example 3 was inoculated in 50 mL of LB medium containing ampicillin resistance and incubated at 37° C. with 180 rpm to an OD600 nm of approximately 0.6. Then, 1 mM IPTG was added, and LHGFR0N3C expression was induced at 16° C. with 160 rpm overnight. […] The fluorescence intensity was detected continuously by using an EnSight microplate reader (PerkinElmer, USA). […]
With “LHGFR0N3C: L-2-HG biosensor: mTFP-LhgR-Venus fusion with C-terminal truncation of three amino acids of LhgR; SEQ ID NO. 3” the “detection of intracellular L-2-HG dynamics (fluorescence emission ratio)” value was “able to detect dynamic changes in intracellular L-2-HG concentration of bacteria in real time”.

What follows are compounds tested on HEK293FT cells (assay: Detection of intracellular L-2-HG concentration in human cells). Details: HEK293FT cells expressing the biosensor, permeabilized with 10 μM digitonin, L-2-HG added.
Assay type: cell-based
Description: The above application was performed by optimizing and synthesizing the nucleotide sequences of LHGFR0N3C and LHGFR0N7C with mammalian codons, adding the kozark sequence, 5′-GCCACC-3′, before the start codon, and ligating it to the pcDNA3.1^(+) plasmid, then the obtained recombinant plasmids pcDNA3.1-LHGFR0N3C and pcDNA3.1-LHGFR0N7C were transfected into HEK293FT cells, respectively. Cells were trypsinized 48 h following transfection, and resuspended in 1× Hank's balanced salt solution supplemented with 20 mM HEPES. Digitonin at a concentration of 10 μM was used to induce cell permeabilization and deplete intracellular L-2-HG for in vivo response curves construction.
The nucleotide sequences of LHGFR0N3C and LHGFR0N7C were optimized for mammalian codons and synthesized by General Biosystem Co., Ltd (Anhui). […] In a black flat-bottomed 96-well plate, 90 μL of the treated cell suspension was mixed with 10 μL of gradient concentration of L-2-HG and the fluorescence intensity was read in a SpectraMax i3 fluorescence plate reader (Molecular Devices, USA). […] The fluorescence intensity of HEK293FT cells not expressing the L-2-HG biosensor was subtracted at each emission wavelength and the dose-response curve in human cells was plotted as the ratio of the corrected fluorescence intensity at 528 nm to the fluorescence intensity at 485 nm.
“LHGFR0N3C: L-2-HG biosensor: mTFP-LhgR-Venus fusion with C-terminal truncation of three amino acids of LhgR; SEQ ID NO. 3” was tested, and the “detection of intracellular L-2-HG (fluorescence emission ratio)” value was “able to detect intracellular L-2-HG concentration in human cells”.
“LHGFR0N7C: L-2-HG biosensor: mTFP-LhgR-Venus fusion with C-terminal truncation of seven amino acids of LhgR; SEQ ID NO. 4” was tested, and the “detection of intracellular L-2-HG (fluorescence emission ratio)” value was “able to detect intracellular L-2-HG concentration in human cells”.
